In experiment [1] the test system is hypercholesterolemic ICR mice. Description: Hypocholesterolemic (cholesterol-lowering) activity in mice fed a high cholesterol-cholic acid diet. The class given is in vivo, mouse (ICR). Conditions: serum, vs control. As for the experimental part: Groups of 6 ICR mice (2 subgroups of 3 mice) were made hypercholesterolemic by being fed a high cholesterol-cholic acid diet for 7 days and administered with test compounds orally on the last two days. One-half of the total dose was given on day 6 followed by the other half on day 7. After fasting overnight (16 hours after the last dose), the animals were sacrificed and sera were collected together for the each subgroup for measuring the levels of cholesterol and heparin precipitating lipoproteins (HPL). Both cholesterol and HPL levels were measured with autoanalyzer by the enzymatic CHOD-PAP method for the former and by the turbidimetric method of Shurr et. al. [in C. E. Dau ed. Atherosclerosis Drug Discovery, Plenum Publishing, New York, pp.215-229 & 231-249, 1976.] for the latter.

Experiment [2] deals with T1, Acyl-CoA:cholesterol acyltransferase (ACAT) (Rattus norvegicus, UniProt Q7TQM4).
T1 construct: prepared from the microsomal fraction of mucosal cells from the small intestines of rats; from tissue; host or cells: microsomal fraction of small-intestinal mucosal cells, fasted 6-week-old male Sprague-Dawley rats
T1 sequence (Q7TQM4 1-524): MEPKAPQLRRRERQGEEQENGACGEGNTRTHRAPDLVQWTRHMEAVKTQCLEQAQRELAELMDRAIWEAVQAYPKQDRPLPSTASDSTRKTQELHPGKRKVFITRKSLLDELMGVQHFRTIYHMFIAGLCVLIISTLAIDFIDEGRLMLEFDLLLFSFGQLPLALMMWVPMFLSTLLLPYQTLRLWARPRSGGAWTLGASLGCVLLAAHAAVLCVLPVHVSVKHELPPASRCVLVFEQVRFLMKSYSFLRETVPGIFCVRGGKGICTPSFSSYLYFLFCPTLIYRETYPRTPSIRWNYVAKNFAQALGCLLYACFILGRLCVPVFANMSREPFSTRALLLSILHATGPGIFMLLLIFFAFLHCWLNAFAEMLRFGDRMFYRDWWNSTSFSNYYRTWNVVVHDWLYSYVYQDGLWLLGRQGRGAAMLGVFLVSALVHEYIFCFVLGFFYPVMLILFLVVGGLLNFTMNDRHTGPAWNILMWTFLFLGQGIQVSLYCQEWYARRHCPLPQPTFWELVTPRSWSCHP
Description: ACAT inhibitory action: labeled cholesterol ester formation from [1-14C]oleoyl-CoA and endogenous cholesterol, small-intestinal mucosal microsomal enzyme. The class given is biochemical, rat (Sprague-Dawley). Conditions: 10^-6 M; read-out: ACAT inhibitory rate (%). As for the experimental part:
In accordance with the method disclosed by Heider et al. on Journal of Lipid Research, 24, p.1127 (1983), an enzyme sample ACAT was prepared from the microsomal fraction of mucosal cells from the small intestines of rats (6-week old male Sprague-Dawleys) fasted for 20 hours.
The ACAT activity was determined by, in accordance with the method disclosed by Helgerud et al. on Journal of Lipid Research 22, p.271 (1981), measuring the amount of labeled cholesterol ester from [1-^14 C]oleoyl-CoA and endogenous cholesterol.
(1) In Table 2, the labeled cholesterol ester formation inhibitory rate (%) determined when supplemented with 10^-6 M of a test compound (a representative one of the compounds obtained in the following Examples 1 to 24) is shown as the index of ACAT inhibitory activity.

In experiment [3] the target is T1, Acyl-CoA:cholesterol acyltransferase (ACAT). Described as above. It counts as biochemical, rat (Sprague-Dawley). The conditions noted are these: 10^-8 M; read-out: ACAT inhibitory rate (%) (in parentheses).
[4] abbreviates: 30 mg/kg po (total dose, halves on day 6 and 7).
Setting [5] is: 1 mg/kg po (total dose, halves on day 6 and 7).
[6] abbreviates: 10 mg/kg po (total dose, halves on day 6 and 7).

Structures are written as SMILES.

Take `Cc1ccccc1-c1c(CC(=O)Nc2c(C(C)C)cccc2C(C)C)oc2ccc(Cl)cc12` [Example 1, N-[2,6-Bis(1-methylethyl)phenyl]-5-chloro-3-(2-methylphenyl)-2-benzofuranacetamide]: in experiment [1] (setting [4]), the “Reduction % HPL (heparin precipitating lipoproteins)” value (from here on “Reduction % HPL”) came to 27% and the Reduction % cholesterol was 32%. Also, the inhibition at 1 µM in experiment [2] is 99.2%. Besides, in experiment [3], the inhibition at 0.01 µM was determined as 93.7%. `COc1cccc(OC)c1NC(=O)Cc1oc2ccc(Cl)cc2c1-c1ccccc1C` [Example 2, 5-Chloro-N-(2,6-dimethoxyphenyl)-3-(2-methylphenyl)-2-benzofuranacetamide]: in experiment [2], the inhibition at 1 µM amounted to 98.8%. With `Cc1cc(C)c(NC(=O)Cc2oc3ccc(Cl)cc3c2-c2ccccc2C)c(C)c1` [Example 3, 5-Chloro-3-(2-methylphenyl)-N-(2,4,6-trimethylphenyl)-2-benzofuranacetamide], in experiment [2], the inhibition at 1 µM worked out at 90.8%. Still for that read-out and setting: in the case of `CC(C)c1cccc(C(C)C)c1NC(=O)Cc1oc2ccc(Cl)cc2c1-c1ccccc1` [Example 4, N-[2,6-Bis(1-methylethyl)phenyl]-5-chloro-3-phenyl-2-benzofuranacetamide] it was 99%; in that of `COc1cccc(OC)c1NC(=O)Cc1oc2ccc(Cl)cc2c1-c1ccccc1` [Example 5, 5-Chloro-N-(2,6-dimethoxyphenyl)-3-phenyl-2-benzofuran acetamide], 93.2%; in that of `Cc1ccccc1-c1c(CC(=O)Nc2c(C(C)C)cccc2C(C)C)n(C)c2ccc(Cl)cc12` [Example 7, N-[2,6-Bis(1-methylethyl)phenyl]-5-chloro-1-methyl-3-(2-methylphenyl)-2-indoleacetamide], 92.3%. Still for that read-out and setting: with `COc1cccc(OC)c1NC(=O)Cc1c(-c2ccccc2C)c2cc(Cl)ccc2n1C` [Example 8, 5-Chloro-N-(2,6-dimethoxyphenyl)-1-methyl-3-(2-methylphenyl)-2-indoleacetamide] the figure was 91.2%. Turning to `Cc1ccccc1-c1c(NC(=O)Nc2c(C(C)C)cccc2C(C)C)oc2ccc(Cl)cc12` [Example 11, N-[2,6-Bis(1-methylethyl)phenyl]-N'-[5-chloro-3-(2-methylphenyl)-2-benzofuryl]urea], in experiment [1] (setting [5]), the “Reduction % HPL” value was 27% and the Reduction % cholesterol is given as 28%. For the same molecule, in experiment [1] (setting [6]), the “Reduction % HPL” value turned out to be 38% and the Reduction % cholesterol was determined as 31%. Moreover, the inhibition at 1 µM in experiment [2] is 99.1%. Further, the inhibition at 0.01 µM in experiment [3] is 92.2%. On to `CCOc1cccc(OCC)c1NC(=O)Cc1oc2ccc(Cl)cc2c1-c1ccccc1C` [Example 16, 5-Chloro-N-(2,6-diethoxyphenyl)-3-(2-methylphenyl)-2-benzofuranacetamide], for which the inhibition at 1 µM in experiment [2] was 98.1%. For the same molecule, in experiment [3], the inhibition at 0.01 µM stood at 50.3%. Take `Cc1ccccc1-c1c(CC(=O)Nc2c(F)cc(F)cc2F)oc2ccc(Cl)cc12` [Example 17, 5-Chloro-3-(2-methylphenyl)-N-(2,4,6-trifluorophenyl)-2-benzofuranacetamide]: the inhibition at 1 µM in experiment [2] was found to be 92.9%. Regarding `Cc1ccccc1-c1c(NC(=O)Nc2c(F)cc(F)cc2F)oc2ccc(Cl)cc12` [Example 18, N-[5-Chloro-3-(2-methylphenyl)-2-benzofuryl]-N'-(2,4,6-trifluorophenyl)urea], the inhibition at 1 µM in experiment [2] was 90.1%.

As to `COc1cccc(OC)c1NC(=O)Nc1oc2ccc(Cl)cc2c1-c1ccccc1C` [Example 19, N-[5-Chloro-3-(2-methylphenyl)-2-benzofuryl]-N'-(2,6-dimethoxyphenyl)urea], in experiment [2], the inhibition at 1 µM worked out at 99%. Also, in experiment [3], the inhibition at 0.01 µM was 28.8%. As for `CCOc1cccc(OCC)c1NC(=O)Nc1oc2ccc(Cl)cc2c1-c1ccccc1C` [Example 20, [5-Chloro-3-(2-methylphenyl)-2-benzofuryl]-N'-(2,6-diethoxyphenyl)urea], the inhibition at 1 µM in experiment [2] is 99.4%. Besides, the inhibition at 0.01 µM in experiment [3] amounted to 39.9%.

Values taken from patent US5492929A, “Condensed heterocyclic compounds useful for inhibiting acyl-CoA” (Takeda Chemical Industries, Ltd., priority 1992, dated 1996).
